Results published in patent US20140378531A1, “INHIBITION OF PATTERN RECOGNITION RECEPTORS IN PANCREATIC CANCER TREATMENT USING TLR INHIBITORS” (NEW YORK UNIVERSITY, priority 2012, published 2014).

Experiments:
Format in all cases: in vivo
[1] = L-arginine induced pancreatic injury; conditions: WT mice, L-arginine for one week
MAP Kinase = MAP Kinase or NF-κB blockade in caerulein + ssRNA40 pancreatitis; conditions: mice, caerulein for 3 weeks + ssRNA40 + pathway blockade
Description: FIG. 15. TLR7 agonists exacerbate pancreatic inflammation via NF-κB and MAP Kinase dependent mechanisms. Mice were treated for 3 weeks with caerulein to induce pancreatitis.
In vivo TLR7 ligation was accomplished by thrice weekly i.p administration of selective TLR7 agonists (ssRNA40, E. coli RNA, or Adenine analogue, all 100 μg/kg; Invivogen, San Diego, Calif.). TLR7 blockade was accomplished using an oligonucleotide inhibitor of TLR7 (Guiducci et al., 2010) (IRS661, 100 μg, 3× per week; Dynavax, Berkeley, Calif.). Bone marrow chimeric animals were created by irradiating mice ([…]) followed by i.v. bone marrow transfer (1×10^7 cells) from non-irradiated donors as described (Bedrosian et al., 2011) Chimeric mice were employed in experiments 7 weeks later. In selected experiments, to accelerate carcinogenesis in p48Cre;Kras^G12D mice, two doses of caerulein (50 μg/kg) were administered over 48 hours as described (Carriere et al., 2009). MAP Kinase signaling blockade was accomplished using the MKK inhibitor PD98059 (2.5 mg/kg/day), the p38 inhibitor SB203580 (30 mg/kg/day), or the JNK inhibitor SP600125 (50 mg/kg/day; all Invivogen). Selective NF-κB signaling blockade was accomplished using either the NEMO binding domain inhibitor (1 mg/kg/day, EMD4Biosciences, Gibbstown, N.J.) or the IkB inhibitor Bay11-7082 (1.25 mg/kg/day; Invivogen). […]

TLR7 = biological target: T1, TLR7 (Mus musculus, UniProt P58681); experiment: TLR7 blockade in caerulein-accelerated pancreatic carcinogenesis in p48Cre;Kras^G12D mice; conditions: caerulein 50 μg/kg, two doses over 48 hours
T1 construct: from tissue; host or cells: whole animal: p48Cre;Kras^G12D mice and WT C57BL/6 mice; TLR7 on pancreatic leukocytes and epithelial cells
T1 sequence (P58681 27-1050): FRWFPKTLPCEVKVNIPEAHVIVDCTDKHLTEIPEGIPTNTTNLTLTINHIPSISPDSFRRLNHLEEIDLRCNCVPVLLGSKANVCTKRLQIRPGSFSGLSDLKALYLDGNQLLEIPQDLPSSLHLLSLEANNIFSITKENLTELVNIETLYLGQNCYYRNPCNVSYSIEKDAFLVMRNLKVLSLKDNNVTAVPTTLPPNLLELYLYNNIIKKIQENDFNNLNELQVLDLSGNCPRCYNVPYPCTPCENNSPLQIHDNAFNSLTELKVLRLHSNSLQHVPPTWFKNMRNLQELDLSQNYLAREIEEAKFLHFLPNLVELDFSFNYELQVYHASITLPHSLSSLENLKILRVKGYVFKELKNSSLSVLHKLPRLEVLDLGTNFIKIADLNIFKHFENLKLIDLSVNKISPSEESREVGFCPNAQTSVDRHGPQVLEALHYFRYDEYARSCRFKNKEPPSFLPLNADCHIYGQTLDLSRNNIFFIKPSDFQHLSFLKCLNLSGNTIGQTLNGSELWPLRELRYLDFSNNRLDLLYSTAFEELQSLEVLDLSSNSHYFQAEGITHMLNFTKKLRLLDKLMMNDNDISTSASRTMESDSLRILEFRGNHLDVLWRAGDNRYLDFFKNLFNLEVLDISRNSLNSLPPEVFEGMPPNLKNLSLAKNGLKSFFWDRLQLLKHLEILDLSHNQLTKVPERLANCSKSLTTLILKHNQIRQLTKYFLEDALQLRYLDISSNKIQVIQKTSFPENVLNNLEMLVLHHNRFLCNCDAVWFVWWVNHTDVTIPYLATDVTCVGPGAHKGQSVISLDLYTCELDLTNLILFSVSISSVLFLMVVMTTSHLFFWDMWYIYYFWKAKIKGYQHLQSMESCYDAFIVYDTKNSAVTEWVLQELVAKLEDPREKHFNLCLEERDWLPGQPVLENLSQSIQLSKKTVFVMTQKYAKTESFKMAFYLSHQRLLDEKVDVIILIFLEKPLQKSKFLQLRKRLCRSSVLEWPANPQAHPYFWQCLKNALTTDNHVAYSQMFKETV

Compound: N=C(N)NCCC[C@H](N)C(=O)O [L-arginine]
- pancreatic injury [1]: induced mild pancreatic edema and inflammation

Compound: COc1cccc(-c2cc(=O)c3ccccc3o2)c1N [PD98059]
- effects of TLR7 ligation on fibro-inflammatory pancreatic disease (MAP Kinase): protected from effects of TLR7 ligation

Compound: caerulein
- pancreatic histology after caerulein alone (TLR7): developed invasive pancreatic adenocarcinoma within an extensive bed of fibro-inflammatory stroma
